One block for each molecule: values may come before it.
Columns and labels:
CtHsp104 [1] = target: T1, CtHsp104 (Thermochaetoides thermophila, UniProt G0S4G4, D295A/E296A); experiment: X-ray crystal structure, […] Å; assay type: binding; conditions: ADP bound in AAA1 and AAA2 active sites; incubated with ADP and AlF3, 3 mM each; pH 5.8
T1 construct: gene CTHT_0022720; full-length, synthetic gene, pET21a, C-terminal His6 tag, E. coli; NTD not visible in the crystal structure

ScHsp104 = target: T2, ScHsp104 (Saccharomyces cerevisiae, UniProt P31539); experiment: coupled ATPase assay (pyruvate kinase / lactate dehydrogenase); assay type: biochemical; conditions: 5 mM MgCl2; varying ATP; Hill fit
T2 construct: gene HSP104; cloned from yeast genomic DNA, pET21a, C-terminal His6 tag, E. coli
T2 sequence (P31539 whole entry): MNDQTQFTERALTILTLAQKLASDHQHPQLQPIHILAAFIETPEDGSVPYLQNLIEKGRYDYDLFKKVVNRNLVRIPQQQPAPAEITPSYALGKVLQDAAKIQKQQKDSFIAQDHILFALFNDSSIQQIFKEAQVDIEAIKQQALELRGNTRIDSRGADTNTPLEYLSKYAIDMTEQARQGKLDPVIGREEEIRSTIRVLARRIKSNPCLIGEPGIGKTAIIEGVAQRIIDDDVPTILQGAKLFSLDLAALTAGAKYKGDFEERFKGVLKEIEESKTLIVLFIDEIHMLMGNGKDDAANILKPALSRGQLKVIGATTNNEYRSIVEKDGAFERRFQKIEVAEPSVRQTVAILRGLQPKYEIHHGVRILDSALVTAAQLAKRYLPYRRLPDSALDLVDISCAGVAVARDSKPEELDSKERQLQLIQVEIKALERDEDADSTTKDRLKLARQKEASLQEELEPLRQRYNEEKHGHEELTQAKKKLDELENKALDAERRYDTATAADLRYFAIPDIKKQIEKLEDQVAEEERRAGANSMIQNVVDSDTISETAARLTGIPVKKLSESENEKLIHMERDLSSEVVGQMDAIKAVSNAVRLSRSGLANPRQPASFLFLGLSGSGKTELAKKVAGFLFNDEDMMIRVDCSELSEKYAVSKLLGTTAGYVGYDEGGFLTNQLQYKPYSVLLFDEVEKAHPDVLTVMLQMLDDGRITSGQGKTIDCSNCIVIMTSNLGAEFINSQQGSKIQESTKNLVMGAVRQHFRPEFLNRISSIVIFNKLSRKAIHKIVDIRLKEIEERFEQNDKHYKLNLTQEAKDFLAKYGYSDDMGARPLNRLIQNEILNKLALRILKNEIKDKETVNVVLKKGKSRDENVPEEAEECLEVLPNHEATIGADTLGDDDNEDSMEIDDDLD

CtHsp104 [2] = target: T3, CtHsp104 (Thermochaetoides thermophila, UniProt G0S4G4); experiment: as above; assay type: biochemical; conditions: 5 mM MgCl2; varying ATP; Hill fit
T3 construct: gene CTHT_0022720; full-length, synthetic gene, pET21a, C-terminal His6 tag, E. coli; NTD not visible in the crystal structure
T3 sequence (G0S4G4 entry or part of it): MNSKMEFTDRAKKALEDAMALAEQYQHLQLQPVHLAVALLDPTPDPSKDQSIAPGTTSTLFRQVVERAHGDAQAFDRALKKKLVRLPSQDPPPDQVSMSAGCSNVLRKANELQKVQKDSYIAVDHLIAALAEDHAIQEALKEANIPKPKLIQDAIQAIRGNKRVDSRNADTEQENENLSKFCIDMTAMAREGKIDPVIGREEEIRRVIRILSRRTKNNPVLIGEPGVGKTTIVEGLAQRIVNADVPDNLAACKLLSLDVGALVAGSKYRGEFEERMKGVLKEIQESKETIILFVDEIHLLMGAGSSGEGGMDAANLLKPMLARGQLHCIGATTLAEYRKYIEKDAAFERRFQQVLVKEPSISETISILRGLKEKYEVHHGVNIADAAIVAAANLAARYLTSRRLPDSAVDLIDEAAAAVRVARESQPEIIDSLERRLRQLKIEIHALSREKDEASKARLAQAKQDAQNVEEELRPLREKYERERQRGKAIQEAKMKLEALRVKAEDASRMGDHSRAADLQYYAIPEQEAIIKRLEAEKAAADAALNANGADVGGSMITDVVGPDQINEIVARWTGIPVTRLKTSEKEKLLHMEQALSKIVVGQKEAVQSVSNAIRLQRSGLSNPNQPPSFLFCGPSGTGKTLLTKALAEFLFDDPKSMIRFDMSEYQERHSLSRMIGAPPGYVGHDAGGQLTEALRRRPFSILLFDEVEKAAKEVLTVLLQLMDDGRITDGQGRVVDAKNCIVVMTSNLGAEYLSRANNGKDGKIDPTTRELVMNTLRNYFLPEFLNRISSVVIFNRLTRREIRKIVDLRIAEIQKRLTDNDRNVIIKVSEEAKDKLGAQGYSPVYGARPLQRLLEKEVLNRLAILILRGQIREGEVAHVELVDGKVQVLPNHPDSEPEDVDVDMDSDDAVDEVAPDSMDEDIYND

[3] = target: CtHsp104 catalytic inactive double Walker A mutant (Chaetomium thermophilum); experiment: SEC; SEC profiles with elution volumes of marker proteins
[4] = target: CtHsp104 double Walker B mutant (Chaetomium thermophilum); experiment: as above
[5] = target: Hsp104 disaggregase from Chaetomium thermophilum, wild type (Chaetomium thermophilum); experiment: as above

T1 sequence (G0S4G4 entry or part of it D295A/E296A): as the sequence (G0S4G4 entry or part of it) above, with D295A, E296A counted along it

Molecule: Nc1ncnc2c1ncn2[C@@H]1O[C@H](COP(=O)(O)OP(=O)(O)O)[C@@H](O)[C@H]1O [ADP]
X-ray crystal structure, 3.7 Å (CtHsp104 [1]): The crystal structure of the double Walker-B mutant in complex with ADP was determined

Molecule: Nc1ncnc2c1ncn2[C@@H]1O[C@H](COP(=O)(O)OP(=O)(O)OP(=O)(O)O)[C@@H](O)[C@H]1O [ATP]
coupled ATPase assay (pyruvate kinase / lactate dehydrogenase) (ScHsp104): ATPase and GFP unfolding activity of wt and ΔPS1 mutants of Ct and ScHsp104
coupled ATPase assay (pyruvate kinase / lactate dehydrogenase) (CtHsp104 [2]): ATPase activity was determined by a coupled enzymatic reaction

More lines, now with the values ahead:

stoichiometry N [3]: 6
Molecule: CtHsp104 catalytic inactive double Walker A mutant (natural protein)

stoichiometry N [4]: 6
Molecule: CtHsp104 double Walker B mutant (natural protein)

stoichiometry N [5]: 6
Molecule: Hsp104 disaggregase from Chaetomium thermophilum, wild type (natural protein)

From article PMC5130295, “Structural basis for the disaggregase activity and regulation of Hsp104” (eLife, 2016)
